The target of the test is T1, Gag-Pol polyprotein [588-1027]/[588-1147] (Human immunodeficiency virus 1, UniProt P04585).
T1 construct: 588-1027; 588-1147
Description: HIV-1 RT Assay. The following applies: pH 8.2; 37 °C. The source says: The IC50 of reverse transcriptase is the concentration that inhibits 50% of recombinant HIV-1 RT RNA-directed DNA polymerase activity in vitro.

As a reminder, the IC50 is the midpoint of a concentration-inhibition curve. Low values mean greater potency in that assay, high ones weaker potency in that assay.

In turn, `CC(C)C(=O)N1c2ccccc2NC(=O)C1(C#CC1CC1)C(F)(F)F` (stereo not drawn) [3-(2-cyclopropylethynyl)-4-(2-methylpropanoyl)-3-(trifluoromethyl)-1,2,3,4-tetrahydroquinoxalin-2-one] showed an IC50 of 160 nM.

As to `O=C(c1ccccc1)N1c2ccccc2NC(=O)C1(C#CC1CC1)C(F)(F)F` (stereo not drawn) [4-benzoyl-3-(2-cyclopropylethynyl)-3-(trifluoromethyl)-1,2,3,4-tetrahydroquinoxalin-2-one], the half-inhibitory concentration (IC50) was greater than 5000 nM.

`O=C(C1CC1)N1c2ccccc2NC(=O)C1(C#CC1CC1)C(F)(F)F` (stereo not drawn) [4-cyclopropanecarbonyl-3-(2-cyclopropylethynyl)-3-(trifluoromethyl)-1,2,3,4-tetrahydroquinoxalin-2-one] came in with a 50% inhibitory concentration (IC50) of 127 nM.

(Values after BindingDB's records for doi:10.1016/s0960-894x(00)00321-8 (Dupont Pharmaceuticals, 2000).)
